This note sets out measurements from US11919902B2, “Aryl-bipyridine amine derivatives as phosphatidylinositol phosphate kinase inhibitors” (HiberCell, Inc., priority 2017, dated 2024).

For assay [1], the target named is T1, PIP4K2A (full length protein, SignalChem) (Homo sapiens, UniProt P48426).
T1 construct: 4 nM PIP4K2A (full length protein, SignalChem); purchased SignalChem
T1 sequence (P48426 1-406): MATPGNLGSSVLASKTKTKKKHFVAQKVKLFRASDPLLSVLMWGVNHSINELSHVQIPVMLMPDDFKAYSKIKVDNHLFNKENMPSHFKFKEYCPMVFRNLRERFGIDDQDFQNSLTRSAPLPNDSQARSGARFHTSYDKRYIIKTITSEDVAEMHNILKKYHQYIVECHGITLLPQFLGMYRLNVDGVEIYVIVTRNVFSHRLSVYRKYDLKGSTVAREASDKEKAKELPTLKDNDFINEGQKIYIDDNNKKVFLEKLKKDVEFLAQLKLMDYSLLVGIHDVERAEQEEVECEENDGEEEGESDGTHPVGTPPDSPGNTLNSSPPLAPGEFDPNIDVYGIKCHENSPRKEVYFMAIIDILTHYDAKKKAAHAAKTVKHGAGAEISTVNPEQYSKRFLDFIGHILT
In words: Kinase Assay PIP4K2 A (Sprint); ADP-Glo biochemical assay. Particulars: Table 2; compounds listed under IC50 range headings. The method in brief: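 Compounds (10-point, 3-fold dilutions) were pre-incubated 15 min at RT with an enzyme/substrate mix of 4 nM full-length PIP4K2A and 100 μM PI(5)P diC8 in 20 mM MOPS pH 7.2, 25 mM MgCl2, 0.005% Tween 20. A 60 μM ATP solution was added, reaction 1 h RT; ADP read by ADP-Glo luminescence, IC50 fitted from % inhibition vs DMSO.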

Another assay addresses T2, GST tagged PIP4KtypeIIB (Homo sapiens, UniProt P78356).
T2 construct: made in house; host or cells: E. coli
T2 sequence (P78356 1-416): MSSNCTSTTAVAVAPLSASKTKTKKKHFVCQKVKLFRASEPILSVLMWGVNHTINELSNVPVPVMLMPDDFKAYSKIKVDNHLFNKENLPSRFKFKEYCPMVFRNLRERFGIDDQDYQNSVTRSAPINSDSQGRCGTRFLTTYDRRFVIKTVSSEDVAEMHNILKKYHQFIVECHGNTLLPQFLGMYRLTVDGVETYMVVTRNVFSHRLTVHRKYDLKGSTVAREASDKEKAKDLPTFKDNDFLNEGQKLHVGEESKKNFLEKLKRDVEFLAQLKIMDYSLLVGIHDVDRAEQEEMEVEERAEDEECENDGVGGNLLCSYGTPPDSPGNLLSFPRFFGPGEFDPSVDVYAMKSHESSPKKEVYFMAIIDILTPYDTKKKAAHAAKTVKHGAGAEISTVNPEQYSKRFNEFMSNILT
Description: Trans-FI P kinase assay PIP4K2B (PIP4KtypeIIB inhibition assay). In kind it is biochemical. To be noted: Table 4; compounds listed under IC50 range headings; 100 uM GTP, 5 nM PIP4KIIB; read-out: Trans-FI P kinase assays: PIP4K2B IC50. The source says: GST tagged PIP4KtypeIIA and B enzymes were overexpressed in E. Coli and purified to >80% homogeneity. Phosphatidyl inositol-5-phosphate (PI5P, Cat. #850152, Avanti Polar Lipids Inc.) was used as the lipid substrate and phosphatidyl ethanolamine (DOPE 18:1, Cat. #850725, Avanti Polar Lipids Inc.) was used as the carrier lipid for assays. Ultrapure ATP and GTP was purchased from Bellbrooke Labs. ADP Glo reagents were obtained from Promega. Transcreener FI reagent was obtained from Bellbrooke labs.
1. HEPES buffer mix: 200 mM HEPES pH 7.4, 50 mM MgCl2, 0.05% v/v triton×100
2. HNE buffer: 20 mM HEPES, pH 7.4, 100 mM NaCl, 0.5 mM EGTA
3. H:E buffer: 30 mM HEPES, pH 7.4, 1 mM EGTA
GST-tagged PIP4KtypeIIB (3.4 uL, 2.77 mg/mL) was diluted to 5 mL using HNE buffer to yield 5× enzyme stock (25 nM)
Lipid Preparation: In a 10 mL pyrex glass vial, lug of PI5P and lug of DOPE were suspended in 2.5 mL of HEPES buffer mix and 2.5 mL of H:E buffer. The contents were mixed and sonicated for 3 min to yield a translucent lipid stock.
Compound Preparation: Compounds were stored as 5 mM stocks in neat DMSO as room temperature in glass vials. 5 mM stocks were diluted to 2 mM and then serially diluted (3×) in neat DMSO in 96 well polypropylene plates. From the serially diluted stocks, 3 uL was delivered into 250 uL of 25% DMSO (in water) to generate 5× compound stocks. Typically, the highest compound conc. was 24 uM.
The assay volume was kept at 25 uL. To each well of the reaction plate, 10 uL of lipid stock (1:1 ratio PI5P:DOPE) was delivered. This was followed by the addition of 5 uL of compound in 25% DMSO. Then, to each well, 5 uL of 25 nM (5×) typeIIB enzyme was delivered. The contents were mixed well and incubated for 1 h at 27 C. After 1 h, reaction was initiated by adding 5 uL of 500 uM GTP and the contents were mixed well with a multi-channel pipetteman. The final concentration of the reagents are as follows: 50 mM HEPES, pH 7.3, 10 mM MgCl2, 20 mM NaCl, 0.01% v/v triton-X100, 5% DMSO, 100 uM GTP, 80 uM (2 ug) PI5P, 2 ug DOPE, and 5 nM PIP4KIIB Typically, the highest conc. of compounds was 4.8 uM and the lowest conc. was 0.
After 2 h, the reaction was quenched by adding 25 uL of transcreener FI reagent. The contents were incubated at RT for 1 h and the Fluorescence (Ex: 584 Em: 623) was read using Molecular Devices Paradigm plate reader. […] The blanks were averaged and subtracted from all other wells. Using a calibration curve, RFU was converted to uM GDP (product). IC50 was calculated by plotting the residual activity (expressed as % No inhibitor control) vs. log [Inh. conc.] Table 2 represents PI5P4K activity of compounds (Example No.) of the invention arranged in accordance with the inhibition of PIP4K2 A kinase assay.

Each structure is given as a SMILES string.

One may read the IC50 as the midpoint of a concentration-inhibition curve. On to `O=C(NCc1ncco1)c1cc2c(-c3cncc(-c4ccc(N5CCCC5=O)cc4)c3)ccnc2[nH]1` [Example 330, N-(oxazol-2-ylmethyl)-4-(5-(4-(2-oxopyrrolidin-1-yl)phenyl)pyridin-3-yl)-1H-pyrrolo[2,3-b]pyridine-2-carboxamide], for which the IC50 was in the range of 0.1 to 1 µM in assay [1] and 0.01 to 0.1 µM at GST tagged PIP4KtypeIIB.

Consider `Cc1cc(N2CCn3c(cc4c(-c5cncc(-c6ccc(N7CCCC7=O)cc6)c5)ccnc43)C2=O)nn1C` [Example 331, 7-(1,5-dimethyl-1H-pyrazol-3-yl)-4-(5-(4-(2-oxopyrrolidin-1-yl)phenyl)pyridin-3-yl)-8,9-dihydropyrido[3′,2′:4,5]pyrrolo[1,2-a]pyrazin-6(7H)-one], for which the IC50 in assay [1] fell in the range of 0.1 to 1 µM; on GST tagged PIP4KtypeIIB, 0.01 to 0.1 µM.

`O=C(c1cc2c(-c3cncc(-c4ccc(N5CCCC5=O)cc4)c3)ccnc2[nH]1)N1CCCC2(CCCO2)C1` (stereo not shown) [Example 332, 1-(4-(5-(2-(1-oxa-7-azaspiro[4.5]decane-7-carbonyl)-1H-pyrrolo[2,3-b]pyridin-4-yl)pyridin-3-yl)phenyl)pyrrolidin-2-one]: the 50% inhibitory concentration (IC50) (in assay [1]; at GST tagged PIP4KtypeIIB) was 0.1 to 1 µM in each case.

Consider `O=C1CCCN1c1ccc(-c2cncc(-c3cc(C4CC4)nc4nncn34)c2)cc1` [Example 333, 1-(4-(5-(7-cyclopropyl-[1,2,4]triazolo[4,3-a]pyrimidin-5-yl)pyridin-3-yl)phenyl)pyrrolidin-2-one], for which the IC50 (in assay [1]; on GST tagged PIP4KtypeIIB) was 0.1 to 1 µM throughout.

With `Nc1ncc(-c2cnc3ncc(-c4cncc(-c5ccc(N6CCCC6=O)cc5)c4)cn23)cn1` [Example 334, 1-(4-(5-(3-(2-aminopyrimidin-5-yl)imidazo[1,2-a]pyrimidin-6-yl)pyridin-3-yl)phenyl)pyrrolidin-2-one], the IC50 (in assay [1]; on GST tagged PIP4KtypeIIB) was 0.1 to 1 µM throughout.

In the case of `CN1CCn2c(cc3c(-c4cncc(-c5ccc(C(=O)N6CCC(C)(C)CC6)cc5)c4)ccnc32)C1=O` [Example 335, 4-(5-(4-(4,4-dimethylpiperidine-1-carbonyl)phenyl)pyridin-3-yl)-7-methyl-8,9-dihydropyrido[3′,2′:4,5]pyrrolo[1,2-a]pyrazin-6(7H)-one], the IC50 (in assay [1]; on GST tagged PIP4KtypeIIB) was 0.1 to 1 µM each time.

As to `Cc1cc(-c2cncc(-c3ccc(N4CCCC4=O)cc3)c2)n2cnnc2n1` [Example 336, 1-(4-(5-(7-methyl-[1,2,4]triazolo[4,3-a]pyrimidin-5-yl)pyridin-3-yl)phenyl)pyrrolidin-2-one], the IC50 in assay [1] is below 5 µM; on GST tagged PIP4KtypeIIB, above 5 µM.

Regarding `Nc1ccc(-c2cnc3ncc(-c4cncc(-c5ccc(N6CCCC6=O)cc5)c4)cn23)cn1` [Example 337, 1-(4-(5-(3-(6-aminopyridin-3-yl)imidazo[1,2-a]pyrimidin-6-yl)pyridin-3-yl)phenyl)pyrrolidin-2-one], the results for the IC50 (in assay [1]; on GST tagged PIP4KtypeIIB) were 0.005 to 0.1 µM and 0.1 to 1 µM, respectively.

For the compound `CC(C)(O)c1cnc2[nH]c(C3CC3)c(-c3cncc(-c4ccc(N5CCCC5=O)cc4)c3)c2c1` [Example 338, 1-(4-(5-(2-cyclopropyl-5-(2-hydroxypropan-2-yl)-1H-pyrrolo[2,3-b]pyridin-3-yl)pyridin-3-yl)phenyl)pyrrolidin-2-one], the figures for the concentration for half-maximal inhibition (IC50) (in assay [1]; at GST tagged PIP4KtypeIIB) were 0.1 to 1 µM and 0.01 to 0.1 µM, respectively.

Take `Cc1ccc2c(c1)OCCN2C(=O)c1cc2c(-c3cncc(-c4ccc(N5CCCC5=O)cc4)c3)ccnc2[nH]1` [Example 339, 1-(4-(5-(2-(7-methyl-3,4-dihydro-2H-benzo[b][1,4]oxazine-4-carbonyl)-1H-pyrrolo[2,3-b]pyridin-4-yl)pyridin-3-yl)phenyl)pyrrolidin-2-one]: the IC50 (in assay [1]; on GST tagged PIP4KtypeIIB) was 0.1 to 1 µM throughout.

`O=C1CCCN1c1ccc(-c2cncc(-c3ccnc4nncn34)c2)cc1` [Example 340, 1-(4-(5-([1,2,4]triazolo[4,3-a]pyrimidin-5-yl)pyridin-3-yl)phenyl)pyrrolidin-2-one]: the IC50 in assay [1] is below 5 µM; at GST tagged PIP4KtypeIIB it was above 5 µM.

On to `O=C1CCCN1c1ccc(-c2cncc(-c3cnc4ncc(-c5cncnc5)n4c3)c2)cc1` [Example 341, 1-(4-(5-(3-(pyrimidin-5-yl)imidazo[1,2-a]pyrimidin-6-yl)pyridin-3-yl)phenyl)pyrrolidin-2-one], for which the IC50 (in assay [1]; at GST tagged PIP4KtypeIIB) was 1 to 2.5 µM each time.

For `CN1CCn2c(cc3c(-c4cncc(-c5ccc(N6CCC(C)(C)CC6=O)cc5)c4)ccnc32)C1=O` [Example 342, 4-(5-(4-(4,4-dimethyl-2-oxopiperidin-1-yl)phenyl)pyridin-3-yl)-7-methyl-8,9-dihydropyrido[3′,2′:4,5]pyrrolo[1,2-a]pyrazin-6(7H)-one], the IC50 is 1 to 2.5 µM in assay [1] and 0.1 to 1 µM on GST tagged PIP4KtypeIIB.

Consider `CC(=O)Nc1ccc(-c2cn(C)c3ncc(-c4cncc(-c5ccc(N6CCCC6=O)cc5)c4)cc23)cn1` [Example 343, N-(5-(1-methyl-5-(5-(4-(2-oxopyrrolidin-1-yl)phenyl)pyridin-3-yl)-1H-pyrrolo[2,3-b]pyridin-3-yl)pyridin-2-yl)acetamide], for which the IC50 in assay [1] was in the range of 0.005 to 0.1 µM; on GST tagged PIP4KtypeIIB, 0.1 to 1 µM.

With `O=C1CCCN1c1ccc(-c2cncc(-c3cnc4ncc(-c5cccnc5)n4c3)c2)cc1` [Example 344, 1-(4-(5-(3-(pyridin-3-yl)imidazo[1,2-a]pyrimidin-6-yl)pyridin-3-yl)phenyl)pyrrolidin-2-one], the IC50 is 2.5 to 5 µM in assay [1] and above 5 µM on GST tagged PIP4KtypeIIB.

On to `Cn1cc(-c2ccc(N)nc2)c2cc(-c3cncc(-c4ccc(N5CCCC5=O)cc4)c3)cnc21` [Example 347, 1-(4-(5-(3-(6-aminopyridin-3-yl)-1-methyl-1H-pyrrolo[2,3-b]pyridin-5-yl)pyridin-3-yl)phenyl)pyrrolidin-2-one], for which the IC50 (in assay [1]; on GST tagged PIP4KtypeIIB) was 0.1 to 1 µM each time.

On to `CN1CCn2c(cc3c(-c4cncc(-c5ccc(-c6nnc7n6CCC7)cc5)c4)ccnc32)C1=O` [Example 348, 4-(5-(4-(6,7-dihydro-5H-pyrrolo[2,1-c][1,2,4]triazol-3-yl)phenyl)pyridin-3-yl)-7-methyl-8,9-dihydropyrido[3′,2′:4,5]pyrrolo[1,2-a]pyrazin-6(7H)-one], for which the IC50 (in assay [1]; at GST tagged PIP4KtypeIIB) was 0.1 to 1 µM throughout.
